# Experimental data as given in US5382582A, “Methotrexate analogs and methods of using same” (priority 1993, dated 1995).
# Columns and labels:
# [1] = In vivo pharmacokinetics: 7-OH-MTX formed from drug in rabbit plasma; set-up: species or system New Zealand White rabbit; details: i.v., as compared with MTX
# Description: A male New Zealand White rabbit was cannulated through the middle ear artery. A single bolus 16.7 mg/kg dose of drug was administered into the ear vein, and 1.0 ml blood samples were withdrawn from the cannulated artery into heparinized tubes at 0, 5, 15, 30, 45, 60, 75 and 90 minutes following drug administration. Plasma was separated from the samples by centrifugation at 1000 rpm, and was kept frozen until analysis.
# HPLC analysis was performed as in Example 5, with the exception that the mobile phase was 0.1 M monobasic sodium phosphate and 0.1 M Tris-HCl in 20% methanol at a final pH of 6.7. p-Aminoacetophenone (10 μg/ml in water) was used as an internal standard.
# Pharmacokinetic parameters were determined by the method of residual, a standard pharmacokinetic technique for resolving a curve into its various exponential components.
# Thus tmax was calculated according to the formula:
# tmax =2.3 log (ka /kc)/[…]
# [2] = tested on: human leukemia cell line K562; assay: Growth inhibition of myelogenous leukemia cells (cell counts, 120 h continuous exposure); type: cell-based; details: for IC50: Homo sapiens, K562 Cells, 120 hours continuous exposure
# Description: (§1) Two suspensious human leukemia cell lines were employed in this study. The myelogenous leukemia cell line K562 was cultured in RPMI 1640 (JRH Biosciences) containing 10% filtered fetal bovine serum (FBS; Irvine Scientific), and the lymphoblastic leukemia cell line CCRF/CEM was cultured in RPMI 1640 containing 20% FBS, 100 U/ml penicillin (GIBCO Laboratories, Grand Island, NY), and 100 μg/ml streptomycin (GIBCO). Cells were maintained at 37° C. with 5% CO2 in air, and were cultured using standard sterile tissue culture technique.
# (§2) Prior to toxicity studies, cells were maintained 48 hours in the absence of added inhibitor. Logarithmically growing cells were inoculated at 1×10^4 cells/ml in tissue culture grade petri dishes (35×10 mm), and, following a suitable recovery period, were treated with chemical agents. Inhibitor concentrations ranging from 10^-12 to 10^-4 M were added to the cultures except for a control culture, which contained no added drug. Cell counts were performed by hematometer counting during 120 hours of continuous exposure to the drugs. The IC50 value was obtained by interpolation from graphs of percent growth inhibition plotted against drug concentration.
# [3] = tested on: human leukemia cell line CCRF/CEM; assay: Growth inhibition of lymphoblastic leukemia cells (cell counts, 120 h continuous exposure); type: cell-based
# Description: as §1, §2
# [4] = Tomcuf, J. Organic Chem., 26, 3351 (1961); cited from earlier work
# [5] = high dose regimen; Barak et al. (1984); cited from earlier work
# [6] = Formation of 7-OH-MTX (7-hydroxylation) in rabbit liver homogenate; details: as compared with MTX
# Description: (§3) For these experiments, freshly isolated liver from a New Zealand white rabbit was homogenized in 400 ml of cold buffer of pH 7.6 consisting of 10 mM Tris-HCl, 25 mM sucrose and 10 mMMgCl2. The homogenate was centrifuged at 1000× g for 20 minutes at 4° C. and the resulting pellet was resuspended in about 14 ml of the same buffer. […] Two ml samples of the homogenate were removed at 10 minute intervals. Samples were boiled 5 minutes to denature proteins, and then centrifuged to pellet cell debris. […] For HPLC analysis, a Perkin-Elmer 410 LC solvent delivery system and a 5-μm IBM ODS column (4.1×250 mm) with a C18 Guard column were employed. The mobile phase consisted of 0.1 M monobasic sodium phosphate and 0.1 M Tris-HCl in 27% methanol at a final pH of 7.6. […] Detector output was recorded and integrated by a Perkin-Elmer LCI 100 integrator.
# [7] = Half-life in rabbit liver homogenate
# Description: as §3, with “employed.” for “employed. The mobile phase consisted of 0.1 M monobasic sodium phosphate and 0.1 M Tris-HCl in 27% methanol at a final pH of 7.6.”
# [8] = Rosowsky and Chen, J. Med. Chem., 18, 1308-11 (1974); cited from earlier work
# [9] = man and monkeys; Borsi et al. (1990), Jacobs et al. (1976); cited from earlier work
smiles,measurement,setting,value
"[2H]c1nc2nc(N)nc(N)c2nc1C([2H])([2H])N(C)c1ccc(C(=O)N[C@@H](CCC(=O)O)C(=O)O)cc1 (racemic) [7,9,9-d3 -MTX, N-[p-[N-(2,4-diamino-7-deutero-6-pteridinyldideuteromethyl)-N-methylamino]benzoyl]glutamic acid]",Peak level of 7-OH-MTX less than that obtained from MTX by,[1],about 70%
same,Time to achieve 7-OH-MTX peak level as compared to that of MTX,[1],more than twice as long
same,IC50,[2],0.04 µM
same,IC50 compared with IC50 of MTX,"[2]; K562 and CCRF/CEM cells, D,L-racemate",greater than the IC50 values obtained for MTX
same,IC50,[3],0.048 µM
"CN(Cc1cnc2nc(N)nc(N)c2n1)c1c(F)cc(C(=O)N[C@@H](CCC(=O)O)C(=O)O)cc1F [3', 5'-difluoro MTX]",Biological activity as compared with MTX,[4],little or no increase in biological activity as compared with MTX
"CN(Cc1nc2c(N)nc(N)nc2nc1O)c1ccc(C(=O)N[C@@H](CCC(=O)O)C(=O)O)cc1 [7-OH-MTX, 7-hydroxymethotrexate]",Toxicity,[5],the source of this toxicity
"[2H]c1nc2nc(N)nc(N)c2nc1CN(C)c1ccc(C(=O)N[C@@H](CCC(=O)O)C(=O)O)cc1 [7-d-MTX, N-{p-[N-(2,4-diamino-7-deutero-6-pterridinylmethyl)-N-methylamino]benzoyl}-L -glutamic acid]",Less 7-OH-MTX formed per unit time than from MTX,[6],about 70%
same,Half-life greater than half-life for MTX by,"[7]; rabbit liver homogenate, as compared with MTX",about 60%
same,IC50,[2],0.006 µM
same,IC50 lower than IC50 of MTX by,"[2]; K562 and CCRF/CEM cells, as compared with MTX",15-25%
same,IC50,[3],0.0095 µM
Cc1nc2nc(N)nc(N)c2nc1CN(C)c1ccc(C(=O)N[C@@H](CCC(=O)O)C(=O)O)cc1 [7-methyl substituted MTX],Antifolate antagonism,[8],impaired antifolate antagonism
"CN(Cc1cnc2nc(N)nc(N)c2n1)c1ccc(C(=O)N[C@@H](CCC(=O)O)C(=O)O)cc1 [MTX, N-[4-[[(2,4-diamino-6pteridinyl)methyl]methylamino]benzoyl]-L-glutamicacid, reference compound]",Conversion in vivo to 7-OH-MTX,[9],converted in vivo to 7-hydroxymethotrexate (7-OH-MTX)
same,Toxicity,[5],associated with renal and hepatic toxicity
same,Half-Life,"[7]; rabbit, liver homogenate, pH 7.6",28.2 min
same,IC50,[2],0.008 µM
same,IC50,[3],0.0113 µM
